In patent US8765785B2, “Solifenacin salts” (Crystal Pharma, S.A.U., priority 2010, dated 2014):
Read-outs that look alike come from different tables or passages of the source.

Key:
Format in all cases: physicochemical
[1] = Stability of the solid salt on standing (colour, UV-HPLC method 2)
Procedure: HPLC Method 2: To Follow the End Points of the Reactions Performed and the Rest of the Impurities:
(§1) 10 g of solifenacin succinate (example 2) were dissolved in 15 mL of water. The solution was frozen by nitrogen liquid and was placed in the freeze-drying equipment at −60° C. under vacuum.

[2] = Solubility in water
Procedure: Therefore, when the procedure to obtain tablets comprising solifenacin fumarate is carried out by wet granulation, the presence of water is not such an important factor.
However, the low solubility of the solifenacin fumarate avoids this problem. The difference in solubility also makes it easier to obtain solid pharmaceutical compositions of solifenacin fumarate since the drying phase is reduced.

[3] = Conversion of the crystalline salt to the amorphous form (lyophilization, vacuum evaporation; PXRD, DSC); conditions: for solid form after lyophilization of an aqueous solution: freeze-drying, -60° C. under vacuum, 15 hours, PXRD and DSC
Procedure: as §1
10 g of solifenacin fumarate (example 1) were dissolved in 600 ml of water at 60° C. The solution was frozen by nitrogen liquid and was placed in the freeze-drying equipment at −60° C. under vacuum.
5 g of solifenacin fumarate (example 1) was dissolved in 50 ml of methanol (1% of water) and evaporated under vacuum at 50° C.

[4] = Stability of tablets of solifenacin salts over 0, 3 and 6 months (Example 9); conditions: for DESCRIPTION: film-coated tablets (Example 8); for course of the amount of F1 impurity: 6 month period
Procedure: To test the stability of solifenacin fumarate, tablets are prepared by wet granulation following the procedure disclosed in US 2008/039516, the contents of which are incorporated in their entirety. A specific example of preparing a tablet containing solifenacin fumarate is given in […] below.
25 parts by weight of Hypromellose (Pharmacoat 603) are dissolved and agitated in 130 parts of purified water with an air motor stirrer (IMA) to prepare a binder solution (at a concentration of 20.0% (w/v)). Then, 50 parts of solifenacin salt, 389 parts of lactose monohydrate (Granulac) and 128 parts of corn starch (C*PharmGel 03406) are mixed together (pre-mix) in a single pot granulator (IMA Zanchetta 3 L capacity).
The binder solution is sprayed over the pre-mix at room temperature with a flow rate of 60 ml/min, impeller speed of 300 rpm and chopper speed of 1500 rpm for wet granulation. After spraying, kneading takes place for 3 min with impeller speed of 300 rpm. After granulation, the granules are dried at a charged temperature of the jacket bowl of 80° C. under vacuum conditions, tilting movement of the bowl of 90° and intermittent speed (120 rpm) of the impeller for 120 seconds.
The granules are dried until a final moisture of 2.5%-1.0% has been reached. 6 parts of magnesium stearate are added to the dried granules for blending with a biconic mixer (SAR Labortecnic). Thereafter, the resulting mixture is compressed with a rotary tabletting machine (KILIAN IMA Pressima) with 6.0 mm punches at a compression pressure sufficient to achieve a hardness of the tablet of more than 50 N and a tablet weight of 60 mg.
The resulting tablets are coated in a non perforated pan (IMA, type HT25). Coating is performed with a solution prepared by dissolving 20 parts of Opadry II pink (Colorcon) in 200 parts of purified water using an air motor stirrer (IMA). Coating is achieved at a charge air temperature of 60-80° C., a pan rotation velocity of 6-13 rpm, and coating fluid feed rate of 16-40 ml/min for a 3.3% ratio of the component to the tablet weight, to obtain the film-coated tablet.
The stability of tablets formulated with solifenacin succinate and solifenacin fumarate, respectively, was tested in a side-by-side comparison. […] For both salts the amount of solifenacin was assayed by HPLC at 0, 3 and 6 months and the amount of “F1 impurity” was also measured. The results are provided in the tables below and are illustrated in FIGS. 9 and 10.

Compound	solid form after lyophilization of an aqueous solution [3]	DESCRIPTION ([4]; 3 MONTHS)	DESCRIPTION ([4]; 6 MONTHS)	DESCRIPTION ([4]; INITIAL)	ASSAY AMOUNT (amount of solifenacin by HPLC) ([4]; tablets, 3 MONTHS) [%]	CHROMATOGRAPHIC IMPURITY (F1 impurity) ([4]; tablets, 3 MONTHS) [%]	HARDNESS ([4]; tablets, 3 MONTHS) [N]	LOSS ON DRYING ([4]; tablets, 3 MONTHS) [%]	MEDIUM WEIGHT ([4]; tablets, 3 MONTHS) [mg]	ASSAY AMOUNT (amount of solifenacin by HPLC) ([4]; tablets, 6 MONTHS) [%]	CHROMATOGRAPHIC IMPURITY (F1 impurity) ([4]; tablets, 6 MONTHS) [%]	HARDNESS ([4]; tablets, 6 MONTHS) [N]	LOSS ON DRYING ([4]; tablets, 6 MONTHS) [%]	MEDIUM WEIGHT ([4]; tablets, 6 MONTHS) [mg]	course of the amount of F1 impurity ([4]; tablets)	ASSAY AMOUNT (amount of solifenacin by HPLC) ([4]; tablets, INITIAL) [%]	CHROMATOGRAPHIC IMPURITY (F1 impurity) ([4]; tablets, INITIAL) [%]	HARDNESS ([4]; tablets, INITIAL) [N]	LOSS ON DRYING ([4]; tablets, INITIAL) [%]	MEDIUM WEIGHT ([4]; tablets, INITIAL) [mg]	other results
solifenacin fumarate	crystalline form	pink biconvex	pink biconvex	pink biconvex	99.4	<0.05	73	2.01	124.21	99.6	<0.05	66	2.24	125.51	remains at the constant low level	98.2	<0.05	75	2.05	124.54	colouring / instability on standing ([1]; crystalline forms): do not have this problem; solubility in water [2]: 11.25 mg/mL; solid form after lyophilization of an aqueous solution ([3]; listed as fumarate salt): remains crystalline; solid form after evaporation under vacuum ([3]; methanol (1% of water), evaporated under vacuum at 50° C.): crystalline form; stability in tablets, conclusion in words ([4]; tablets, 6 month side-by-side comparison): much more stable than the succinate salt
O=C(O[C@H]1CN2CCC1CC2)N1CCc2ccccc2[C@@H]1c1ccccc1 [solifenacin succinate]	quite easy to obtain the desired amorphous form	pink biconvex	pink biconvex	pink biconvex	96.8	<0.06	98	2.43	124.80	94.7	0.91	102	2.39	126.26	increases in the 6 month period	98.7	<0.05	98	2.40	125.57	colouring / instability on standing [1]: do not have this problem; solubility [2]: 727 mg/mL
O=C(O[C@H]1CN2CCC1CC2)N1CCc2ccccc2[C@@H]1c1ccccc1 [amorphous form of solifenacin succinate, solifenacin succinate]	–	–	–	–	–	–	–	–	–	–	–	–	–	–	–	–	–	–	–	–	amount of new impurity with relative retention time 0.93 ([1]; left to stand for ten days, HPLC method 2): 0.14%; time until the white solid turned colored ([1]; solid on standing): 2 to 3 days; colour change of the white solid ([1]; three days after freeze-drying): turned brown-colored
